The values below come from patent US5906930A, “Para-nitrobenzyl esterases with enhanced activity in aqueous and nonaqueous media” (California Institute of Technology, priority 1998, dated 1999).

Test in all cases: Kinetic assays of purified pNB esterase (ester hydrolysis)
Holding throughout (type): biochemical
Common to all, as to conditions: 0.1M PIPES pH 7.0, 30° C.

Assay [1] has as its target T1, Bacillus subtilis para-nitrobenzyl esterase variant 1-1H9 (incl. Y370F), SEQ. ID. NO. 4 (Bacillus subtilis, UniProt P37967, H322R/Y370F).
T1 sequence (P37967 1-489 K23L/S59P/K95Q/N150D/S230A/G242S/K246R/S251A/A291S/H322R/V343A/Y370F/K390E/L463V): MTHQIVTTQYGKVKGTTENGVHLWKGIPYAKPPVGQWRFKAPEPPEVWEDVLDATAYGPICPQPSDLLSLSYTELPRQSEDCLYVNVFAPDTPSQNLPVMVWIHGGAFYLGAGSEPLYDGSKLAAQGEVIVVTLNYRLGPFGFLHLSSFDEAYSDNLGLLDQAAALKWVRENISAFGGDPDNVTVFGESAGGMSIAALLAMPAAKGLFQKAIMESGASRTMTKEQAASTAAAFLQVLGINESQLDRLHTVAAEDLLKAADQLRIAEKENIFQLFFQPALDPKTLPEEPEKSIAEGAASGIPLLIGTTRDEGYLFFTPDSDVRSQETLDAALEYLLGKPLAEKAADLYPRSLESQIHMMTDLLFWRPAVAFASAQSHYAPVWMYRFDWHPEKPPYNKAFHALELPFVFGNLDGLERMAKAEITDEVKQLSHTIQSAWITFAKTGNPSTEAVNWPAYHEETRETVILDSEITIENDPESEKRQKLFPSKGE
The method, then: Bacteria expressing seven pNB esterases, 0-WT (SEQ. ID. NO. 2), 1-1H9, 2-19E10, 3-10C4, 4-38B9, 4-43E7, and 4-54B9, were grown in one liter cultures and the enzymes were purified. These purified enzymes were assayed for their ability to hydrolyze the different ester substrates in the presence of various concentrations of DMF.
The effects on kcat, however, are more prominent: kcat increases more than 9-fold from wild type to 4-54B9 in 15% DMF, while KM decreases by less than a factor of two on LCN-pNB. […] These improvements are obviously the most useful for enzymes intended to be used for transformations in high substrate concentrations.
(§1) Kinetic assays were performed on three substrates: pNPA, LCN-pNP, and p-nitrobenzyl loracarbef nucleus (LCN-pNB). For pNPA and LCN-pNP substrates, final concentrations varying from 0.0625 mM to 16 mM and 0, 15, and 30% DMF in 0.1M PIPES (Sigma), pH 7.0 were combined with equal volumes of enzyme samples. These samples were mixed simultaneously in a 96 well plate and monitored with the 96 well plate reader. The absorbance values were recorded, linearly regressed, and then used for calculating kinetic parameters. For the LCN-pNB substrate, final concentrations varying from 0.0156 mM to 8.0 mM and 0, 15 and 30% DMF in PIPES, pH 7.0 were combined with enzyme samples in a quartz cuvette and were measured in a spectrophotometer at 289 nm. All assays were measured in triplicate.

For assay [2], the target named is T2, Bacillus subtilis para-nitrobenzyl esterase (pNB esterase), wild type 0-WT, SEQ. ID. NO. 2 (Bacillus subtilis, UniProt P37967).
T2 sequence (P37967 1-489 K23L/S59P/K95Q/N150D/S230A/G242S/K246R/S251A/A291S/V343A/K390E/L463V): T1 sequence (P37967 1-489 K23L/S59P/K95Q/N150D/S230A/G242S/K246R/S251A/A291S/H322R/V343A/Y370F/K390E/L463V) with R322H, F370Y
Details: unit not given beside the values. The method, then:
(§2) Bacteria expressing seven pNB esterases, 0-WT (SEQ. ID. NO. 2), 1-1H9, 2-19E10, 3-10C4, 4-38B9, 4-43E7, and 4-54B9, were grown in one liter cultures and the enzymes were purified. These purified enzymes were assayed for their ability to hydrolyze the different ester substrates in the presence of various concentrations of DMF. FIGS. 8a, b and c show the specific reaction rates on pNPA as a function of pNPA substrate concentration for this series of evolved variants from the four generations of mutagenesis and screening. […] The wild type enzyme outperforms 1-1H9 in purely aqueous buffer (FIG. 8a). The actual screening, however, was performed in the presence of DMF, and in 15 and 30% DMF, 1-1H9 has higher specific activity towards pNPA than wild type (FIGS. 8b and 8c). Similar trends are seen for the remaining variants assayed on this substrate. […] In 30% DMF, wild type drops still further relative to the pNB esterase variants. Variants 4-38B9 and 4-43E7, presumably by, virtue of having been screened in DMF for four rounds of mutagenesis, are the best performers in 30% DMF.
(§3) DMF dramatically increases KM while also decreasing kcat. For the LCN substrates, the mutations accumulated during directed evolution mitigate the increased KM. The effects on kcat, however, are more prominent: kcat increases more than 9-fold from wild type to 4-54B9 in 15% DMF, while KM decreases by less than a factor of two on LCN-pNB. […] At substrate concentrations […], increased specific activity will result mainly from improvements in kcat. These improvements are obviously the most useful for enzymes intended to be used for transformations in high substrate concentrations.
as §1

The target of assay [3] is T3, Bacillus subtilis para-nitrobenzyl esterase variant 2-19E10 (1-1H9 substitutions + M358V), SEQ. ID. NO. 6 (Bacillus subtilis, UniProt P37967, H322R/M358V/Y370F).
T3 sequence (P37967 1-489 K23L/S59P/K95Q/N150D/S230A/G242S/K246R/S251A/A291S/H322R/V343A/M358V/Y370F/K390E/L463V): T1 sequence (P37967 1-489 K23L/S59P/K95Q/N150D/S230A/G242S/K246R/S251A/A291S/H322R/V343A/Y370F/K390E/L463V) with M358V
Details: unit not given beside the values. The procedure: as §2, §3, §1

Setting [4] is: substrate p-nitrophenyl loracarbef nucleus, 0% DMF.
Where [5] appears, read: substrate p-nitrophenyl loracarbef nucleus, 15% DMF.
[6] abbreviates: substrate p-nitrophenyl loracarbef nucleus, 30% DMF.
Where [7] appears, read: substrate p-nitrobenzyl loracarbef nucleus, 0% DMF.
Where [8] appears, read: substrate p-nitrobenzyl loracarbef nucleus, 15% DMF.

Residue numbers refer to the chain shown, from its start.

Turning to `NC1C(=O)N2C(C(=O)Oc3ccc([N+](=O)[O-])cc3)=C(Cl)CCC12` (stereo not drawn) [p-nitrophenyl loracarbef nucleus], the kcat in assay [1] (setting [4]) was determined as 0.08; in assay [1] (setting [5]) it was 0.07; in assay [1] (setting [6]) it was 0.021; in assay [2] (setting [4]) it was 0.14; in assay [2] (setting [5]), 0.10; in assay [2] (setting [6]) it was 0.024. The kcat was determined as 0.25 in assay [3] (setting [4]), 0.12 in assay [3] (setting [5]) and 0.023 in assay [3] (setting [6]).

As for `NC1C(=O)N2C(C(=O)OCc3ccc([N+](=O)[O-])cc3)=C(Cl)CCC12` (stereo not drawn) [p-nitrobenzyl loracarbef nucleus], the kcat in assay [1] (setting [7]) was found to be 1.94; in assay [1] (setting [8]) it was 0.69; in assay [2] (setting [7]), 1.64; in assay [2] (setting [8]) it was 0.54; in assay [3] (setting [7]), 4.59; in assay [3] (setting [8]), 1.81.
